Measured values reported in patent publication US20060020036A1, “Methods and compositions to promote bone homestasis” (priority 2004, published 2006).
Entries after “also recorded” stand apart in the source; their conditions may differ.

Biological target: T1, NR1H2 (Homo sapiens, UniProt P55055)
T1 construct: amplification of the complete open reading frame from ATG start codon to the stop codon of drugable genes; expressed in transfected cells; host or cells: primary human mesenchymal progenitor cells (MPCs), transduced with Ad5-NR1H2 and Ad-hCAR
T1 sequence (P55055 1-460): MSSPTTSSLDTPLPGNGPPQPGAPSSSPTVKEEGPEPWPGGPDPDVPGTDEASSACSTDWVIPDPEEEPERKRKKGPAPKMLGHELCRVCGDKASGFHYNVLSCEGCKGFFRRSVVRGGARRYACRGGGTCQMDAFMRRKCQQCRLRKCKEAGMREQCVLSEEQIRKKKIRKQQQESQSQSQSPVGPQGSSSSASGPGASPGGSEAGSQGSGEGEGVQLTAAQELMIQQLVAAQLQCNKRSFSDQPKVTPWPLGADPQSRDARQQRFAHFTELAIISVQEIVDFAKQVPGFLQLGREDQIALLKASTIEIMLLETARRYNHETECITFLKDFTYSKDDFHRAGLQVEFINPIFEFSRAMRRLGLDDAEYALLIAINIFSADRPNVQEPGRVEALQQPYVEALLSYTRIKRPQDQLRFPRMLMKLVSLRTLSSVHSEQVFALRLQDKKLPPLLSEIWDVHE
Assay: AP assay: MPCs infected with Ad-NR1H2 and treated with ligand
Assay type: cell-based
Conditions: ligand at different concentrations
Method: MPCs are seeded on day0 at 1000 cells per well of a 384 well plate and co-infected the next day using AdC51-hCAR (MOI 250) and different MOIs of Ad5-NR1H3 (MOI 2000, 666). On day 1, 5 concentrations (1E-9M, 1E-8M, 1E-7M, 1E-6M, 1E-5M) of the compound T0901317 (Cayman Chemical, Michigan, USA, Cat. No. 71810) with fixed vehicle concentration (DMSO at final concentration of 0.1%) are added to the wells. After 6 days, medium is removed and replaced with fresh medium containing the same concentrations of the compound T0901317. Readouts of AP activity are performed at several time points after the start of the experiment, typically after 7, 10 and 13 days. Up-regulation of alkaline phosphatase activity is read as follows: medium is removed from the monolayers, 15 μl MUP is added to each well, the plates are incubated for 15 min at 37° C. and then read for AP activity using a fluorescence plate reader (Fluostar, BMG).
(§1) MPCs are seeded on day 0 at 1000 cells per well of a 384 well plate and co-infected the next day using AdC51-hCAR (MOI 250) and different MOIs of Ad5-NR1H2 (MOI 2000, 666). […] Readouts of AP activity are performed at several time points after the start of the experiment, typically after 7, 10 and 13 days. Up-regulation of alkaline phosphatase activity is read as follows: medium is removed from the monolayers, 15 μL MUP is added to each well, the plates are incubated for 15 min at 37° C. and then read for AP activity using a fluorescence plate reader (Fluostar, BMG).
as §1, with “day0” for “day 0”, “AdC5′-hCAR” for “AdC51-hCAR”, “Ad5-NR1H2 or Ad-NR1H3” for “Ad5-NR1H2”, “6000).” for “666).”, “μl” for “μL”

| SMILES | up-regulation of endogenous alkaline phosphatase (AP) activity, dose-response |
| --- | --- |
| CC(=O)Oc1ccc2c(c1)[C@@]1(C)CCC[C@](C)(C(=O)OC(=O)[C@@]3(C)CCC[C@]4(C)c5cc(OC(C)=O)ccc5CC[C@@H]34)[C@@H]1CC2 [APD, acetyl podocarpic dimer] | dose-response relation is observed; also recorded: AP activity is up-regulated; also recorded: Dose-dependent up-regulation of AP activity |
| O=C(O)Cc1cccc(OCCCN(Cc2cccc(C(F)(F)F)c2Cl)CC(c2ccccc2)c2ccccc2)c1 [GW3965, 2-(3-(3-(N-(2-chloro-3-(trifluoromethyl)benzyl)-N-(2,2-diphenylethyl)amino)propoxy)phenyl)acetic acid] | dose-response relation is observed; also recorded: AP activity is up-regulated; also recorded: Dose-dependent up-regulation of AP activity |
| O=S(=O)(c1ccccc1)N(CC(F)(F)F)c1ccc(C(O)(C(F)(F)F)C(F)(F)F)cc1 [T0901317, N-(2,2,2-trifluoroethyl)-N-[4-[2,2,2-trifluoro-1-hydroxy-1-(trifluoromethyl)ethyl]phenyl]-benzenesulfonamide] | dose-response relation is observed; also recorded: AP activity is up-regulated; also recorded: Dose-dependent up-regulation of AP activity |
